Laboratory results: PubChem BioAssay AID248 (DTP/NCI, 2004)
“And” between values parts separate entries of the source, which are not always exact repeats. Equal entries are not always repeated. Toxic doses and inconclusive results are not listed. Cut-off read from the data, not from the text of the source: active = T/C of 150% or more; inactive = T/C below 125%.

Tested on: L1210 leukemia ip in BDF1 mice, survival T/C
Experiment: NCI In Vivo Anticancer Drug Screen. Data for tumor model L1210 Leukemia (intraperitoneal) in B6D2F1 (BDF1) mice
Conditions: higher = longer survival
How it was run: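 Mice bearing the transplanted tumor received compound or vehicle. Survival of the treated group was divided by that of the vehicle-treated control group to give the ratio.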

Measured: T/C

Nc1nc(=O)n(C2OC(CO)C(O)C2O)cc1F (stereo not drawn)
active: endpoint: mean survival time, dose: 0.37 mg/kg/injection, schedule: Q#A X020 (ip), vehicle: saline 169 % of control | endpoint: mean survival time, dose: 0.75 mg/kg/injection, schedule: Q#A X020 (ip), vehicle: saline 211 % of control | endpoint: mean survival time, dose: 1.5 mg/kg/injection, schedule: Q01DX010 (ip), vehicle: saline 177 % of control | endpoint: mean survival time, dose: 1.5 mg/kg/injection, schedule: Q#A X020 (ip), vehicle: saline 217 % of control | endpoint: mean survival time, dose: 2.5 mg/kg/injection, schedule: Q03DX004 (ip), vehicle: saline 157 % of control | endpoint: mean survival time, dose: 3.0 mg/kg/injection, schedule: Q01DX010 (im), vehicle: saline 159 % of control and 166 % of control | endpoint: mean survival time, dose: 3.0 mg/kg/injection, schedule: Q01DX010 (ip), vehicle: saline 166 % of control | endpoint: mean survival time, dose: 3.0 mg/kg/injection, schedule: Q01DX010 (sc), vehicle: saline 152 % of control and 162 % of control | endpoint: mean survival time, dose: 3.12 mg/kg/injection, schedule: Q01DX015 (ip), vehicle: saline 195 % of control | endpoint: mean survival time, dose: 4.0 mg/kg/injection, schedule: Q01DX009 (ip), vehicle: saline 173 % of control | endpoint: mean survival time, dose: 5.0 mg/kg/injection, schedule: Q03DX004 (ip), vehicle: saline 157 % of control | endpoint: mean survival time, dose: 6.0 mg/kg/injection, schedule: Q01DX010 (im), vehicle: saline 176 % of control | endpoint: mean survival time, dose: 6.0 mg/kg/injection, schedule: Q01DX010 (ip), vehicle: saline 183 % of control | endpoint: mean survival time, dose: 6.0 mg/kg/injection, schedule: Q01DX010 (sc), vehicle: saline 178 % of control | endpoint: mean survival time, dose: 8.0 mg/kg/injection, schedule: Q01DX009 (ip), vehicle: saline 216 % of control | endpoint: mean survival time, dose: 10.0 mg/kg/injection, schedule: Q03DX004 (ip), vehicle: saline 160 % of control | endpoint: mean survival time, dose: 10.0 mg/kg/injection, schedule: Q03DX Z (ip), vehicle: saline 166 % of control | endpoint: mean survival time, dose: 12.0 mg/kg/injection, schedule: Q01DX006 (iv), vehicle: saline 157 % of control | endpoint: mean survival time, dose: 12.0 mg/kg/injection, schedule: Q01DX010 (im), vehicle: saline 217 % of control | endpoint: mean survival time, dose: 12.0 mg/kg/injection, schedule: Q01DX010 (ip), vehicle: saline 197 % of control | endpoint: mean survival time, dose: 12.0 mg/kg/injection, schedule: Q01DX010 (sc), vehicle: saline 203 % of control | endpoint: mean survival time, dose: 12.0 mg/kg/injection, schedule: Q#A X020 (ip), vehicle: saline 201 % of control | endpoint: mean survival time, dose: 12.5 mg/kg/injection, schedule: Q01DX010 (oral), vehicle: saline 153 % of control | endpoint: mean survival time, dose: 20.0 mg/kg/injection, schedule: Q03DX Z (ip), vehicle: saline 174 % of control | endpoint: mean survival time, dose: 24.0 mg/kg/injection, schedule: Q01DX006 (iv), vehicle: saline 160 % of control and 191 % of control | endpoint: mean survival time, dose: 24.0 mg/kg/injection, schedule: Q01DX010 (ip), vehicle: saline 191 % of control | endpoint: mean survival time, dose: 25.0 mg/kg/injection, schedule: Q01DX005 (ip), vehicle: saline 150 % of control and 160 % of control | endpoint: mean survival time, dose: 25.0 mg/kg/injection, schedule: Q01DX010 (oral), vehicle: saline 174 % of control | endpoint: mean survival time, dose: 40.0 mg/kg/injection, schedule: Q01DX005 (ip), vehicle: saline 174 % of control | endpoint: mean survival time, dose: 40.0 mg/kg/injection, schedule: Q03DX Z (ip), vehicle: saline 198 % of control | endpoint: mean survival time, dose: 48.0 mg/kg/injection, schedule: Q01DX006 (iv), vehicle: saline 180 % of control | endpoint: mean survival time, dose: 50.0 mg/kg/injection, schedule: Q01DX010 (oral), vehicle: saline 186 % of control | endpoint: mean survival time, dose: 64.0 mg/kg/injection, schedule: Q01DX009 (oral), vehicle: saline 168 % of control | endpoint: mean survival time, dose: 80.0 mg/kg/injection, schedule: Q01DX005 (ip), vehicle: saline 168 % of control | endpoint: mean survival time, dose: 80.0 mg/kg/injection, schedule: Q03DX004 (ip), vehicle: saline 180 % of control | endpoint: mean survival time, dose: 80.0 mg/kg/injection, schedule: Q03DX Z (ip), vehicle: saline 201 % of control | endpoint: mean survival time, dose: 96.0 mg/kg/injection, schedule: Q01DX006 (iv), vehicle: saline 177 % of control | endpoint: mean survival time, dose: 100.0 mg/kg/injection, schedule: Q01DX009 (ip), vehicle: saline 183 % of control | endpoint: mean survival time, dose: 100.0 mg/kg/injection, schedule: Q01DX010 (oral), vehicle: saline 157 % of control | endpoint: mean survival time, dose: 128.0 mg/kg/injection, schedule: Q01DX009 (oral), vehicle: saline 181 % of control | endpoint: mean survival time, dose: 160.0 mg/kg/injection, schedule: Q01DX005 (ip), vehicle: saline 168 % of control | endpoint: mean survival time, dose: 160.0 mg/kg/injection, schedule: Q03DX004 (ip), vehicle: saline 198 % of control | endpoint: mean survival time, dose: 160.0 mg/kg/injection, schedule: Q07DX002 (ip), vehicle: saline 154 % of control | endpoint: mean survival time, dose: 160.0 mg/kg/injection, schedule: Q07DX Z (ip), vehicle: saline 152 % of control | endpoint: mean survival time, dose: 320.0 mg/kg/injection, schedule: Q07DX002 (ip), vehicle: saline 182 % of control | endpoint: median survival time, dose: 2.0 mg/kg/injection, schedule: Q01DX009 (ip), vehicle: saline with Tween-80 168 % of control | endpoint: median survival time, dose: 4.0 mg/kg/injection, schedule: Q01DX009 (ip), vehicle: saline with Tween-80 175 % of control | endpoint: median survival time, dose: 4.0 mg/kg/injection, schedule: Q01DX009 (ip), vehicle: saline 160 % of control and 175 % of control | endpoint: median survival time, dose: 8.0 mg/kg/injection, schedule: Q01DX009 (ip), vehicle: saline with Tween-80 183 % of control | endpoint: median survival time, dose: 8.0 mg/kg/injection, schedule: Q01DX009 (ip), vehicle: saline 170 % of control and 187 % of control | endpoint: median survival time, dose: 16.0 mg/kg/injection, schedule: Q01DX009 (ip), vehicle: saline with Tween-80 186 % of control | endpoint: median survival time, dose: 16.0 mg/kg/injection, schedule: Q01DX009 (ip), vehicle: saline 190 % of control | endpoint: median survival time, dose: 32.0 mg/kg/injection, schedule: Q01DX009 (ip), vehicle: saline with Tween-80 202 % of control | endpoint: median survival time, dose: 32.0 mg/kg/injection, schedule: Q01DX009 (ip), vehicle: saline 160 % of control
inactive: endpoint: mean survival time, dose: 0.02 mg/kg/injection, schedule: Q#A X020 (ip), vehicle: saline 104 % of control | endpoint: mean survival time, dose: 0.04 mg/kg/injection, schedule: Q#A X020 (ip), vehicle: saline 109 % of control | endpoint: mean survival time, dose: 0.05 mg/kg/injection, schedule: Q01DX010 (ip), vehicle: saline 98 % of control | endpoint: mean survival time, dose: 0.09 mg/kg/injection, schedule: Q01DX010 (ip), vehicle: saline 102 % of control | endpoint: mean survival time, dose: 0.09 mg/kg/injection, schedule: Q#A X020 (ip), vehicle: saline 118 % of control | endpoint: mean survival time, dose: 0.16 mg/kg/injection, schedule: Q03DX003 (ip), vehicle: saline 108 % of control | endpoint: mean survival time, dose: 0.19 mg/kg/injection, schedule: Q01DX010 (ip), vehicle: saline 118 % of control | endpoint: mean survival time, dose: 0.31 mg/kg/injection, schedule: Q03DX003 (ip), vehicle: saline 108 % of control | endpoint: mean survival time, dose: 0.38 mg/kg/injection, schedule: Q01DX010 (im), vehicle: saline 114 % of control | endpoint: mean survival time, dose: 0.38 mg/kg/injection, schedule: Q01DX010 (ip), vehicle: saline 110 % of control | endpoint: mean survival time, dose: 0.38 mg/kg/injection, schedule: Q01DX010 (sc), vehicle: saline 112 % of control | endpoint: mean survival time, dose: 0.63 mg/kg/injection, schedule: Q03DX003 (ip), vehicle: saline 122 % of control | endpoint: mean survival time, dose: 0.75 mg/kg/injection, schedule: Q01DX010 (im), vehicle: saline 120 % of control | endpoint: mean survival time, dose: 1.25 mg/kg/injection, schedule: Q03DX003 (ip), vehicle: saline 122 % of control | endpoint: mean survival time, dose: 1.56 mg/kg/injection, schedule: Q01DX010 (oral), vehicle: saline 106 % of control | endpoint: mean survival time, dose: 2.5 mg/kg/injection, schedule: Q01DX001 (ip), vehicle: saline 120 % of control | endpoint: mean survival time, dose: 2.5 mg/kg/injection, schedule: Q07DX002 (ip), vehicle: saline 111 % of control | endpoint: mean survival time, dose: 3.0 mg/kg/injection, schedule: Q01DX006 (iv), vehicle: saline 124 % of control | endpoint: mean survival time, dose: 3.13 mg/kg/injection, schedule: Q01DX010 (oral), vehicle: saline 112 % of control | endpoint: mean survival time, dose: 5.0 mg/kg/injection, schedule: Q01DX001 (ip), vehicle: saline 122 % of control | endpoint: mean survival time, dose: 6.25 mg/kg/injection, schedule: Q01DX010 (oral), vehicle: saline 118 % of control | endpoint: mean survival time, dose: 10.0 mg/kg/injection, schedule: Q01DX001 (ip), vehicle: saline 124 % of control | endpoint: mean survival time, dose: 20.0 mg/kg/injection, schedule: Q01DX001 (ip), vehicle: saline 118 % of control | endpoint: mean survival time, dose: 24.0 mg/kg/injection, schedule: Q#A X020 (ip), vehicle: saline 120 % of control | endpoint: mean survival time, dose: 40.0 mg/kg/injection, schedule: Q01DX001 (ip), vehicle: saline 122 % of control | endpoint: mean survival time, dose: 48.0 mg/kg/injection, schedule: Q01DX010 (ip), vehicle: saline 116 % of control | endpoint: mean survival time, dose: 48.0 mg/kg/injection, schedule: Q#A X020 (ip), vehicle: saline 101 % of control | endpoint: mean survival time, dose: 50.0 mg/kg/injection, schedule: Q01DX001 (ip), vehicle: saline 124 % of control | endpoint: mean survival time, dose: 96.0 mg/kg/injection, schedule: Q01DX010 (ip), vehicle: saline 112 % of control | endpoint: mean survival time, dose: 96.0 mg/kg/injection, schedule: Q#A X020 (ip), vehicle: saline 103 % of control | endpoint: mean survival time, dose: 100.0 mg/kg/injection, schedule: Q01DX001 (ip), vehicle: saline 118 % of control | endpoint: mean survival time, dose: 128.0 mg/kg/injection, schedule: Q01DX001 (oral), vehicle: saline 110 % of control | endpoint: mean survival time, dose: 192.0 mg/kg/injection, schedule: Q01DX006 (iv), vehicle: saline 95 % of control | endpoint: mean survival time, dose: 192.0 mg/kg/injection, schedule: Q01DX010 (im), vehicle: saline 110 % of control | endpoint: mean survival time, dose: 192.0 mg/kg/injection, schedule: Q01DX010 (ip), vehicle: saline 108 % of control | endpoint: mean survival time, dose: 192.0 mg/kg/injection, schedule: Q01DX010 (sc), vehicle: saline 119 % of control | endpoint: mean survival time, dose: 200.0 mg/kg/injection, schedule: Q01DX001 (ip), vehicle: saline 119 % of control | endpoint: mean survival time, dose: 200.0 mg/kg/injection, schedule: Q01DX009 (ip), vehicle: saline 93 % of control | endpoint: mean survival time, dose: 256.0 mg/kg/injection, schedule: Q01DX001 (oral), vehicle: saline 117 % of control
